Laboratory results as given in patent publication US9144613B2, “Halogenated phenols for diagnostics, antioxidant protection and drug delivery” (priority 2012, dated 2015).

Key:
[1] = test system: spontaneous tumors; conditions: 10 mg by gavage; X-ray imaging about two hours after; mice showing spontaneous tumors; control images of same mice prior to treatment did not show foci
Source text: As described above, oxidative foci or tumors may be identified by X-ray radiographic imaging of animals following administration of an indigogenic compound of the present invention. The radio-opaque indigo-like product formed and deposited with residence time in FROS-containing tumor tissues may then be detected.
In this example, female C3H/HeN mice were obtained as multiparous retired breeders (i.e., after 3 to 4 litters) that were positive for a mammary tumor virus. See, e.g., Sellitti, D. F., Tseng, Y-C., and Latham, K. R., “Effect of 3,5,3′-Triiodo-L-thyronine on the Incidence and Growth Kinetics of Spontaneous Mammary Tumors in C3H/HeN Mice,” Cancer Research, 41: 5015-19 (1981), the entire contents and disclosure of which are incorporated herein by reference. Mice showing spontaneous tumors were given 10 mg of 5-Iodo-Indoxyl-3′,5′-Diiodo-4′-hydroxy ether substrate (product of Example 4) by gavage. These mice were then subjected to X-ray imaging of the tumors about two hours after being fed the iodo-indigogenic compound. […] When developed, the X-ray film appears dark in areas where more transmission occurs and light in areas where less transmission occurs.

[2] = test system: sites of the wound or injury; conditions: mice with small injuries or wounds (cuts, scratches); data not shown
[3] = Cleavage of the C—C bond during the oxidative dehalogenation reaction; format: physicochemical
Source text: It has also been discovered that other types of bonds or linkages may also be cleaved by oxidative or free radical-mediated dehalogenation of the phenol ring. For example, as described herein, it has now been observed that a carbonyl linkage, a nitrogen linkage, a sulfinyl linkage and possibly a C—C bond on the phenol ring may also be cleaved by the oxidative dehalogenation reaction. These bonds are also considered stable, and their cleavage in connection with the dehalogenation reaction is surprising as well. One caveat with the C—C bond or linkage is that depending on the particular starting compound structure and the substituents or groups attached to the halogenated phenol ring via the C—C bond, the C—C bond or linkage may or may not be generally cleaved during or following the dehalogenation reaction (see below). […] However, other compounds do become cleaved. It is important to note that whether a C—C bond of a particular starting compound is “cleavable,” or becomes cleaved, may not be all-or-nothing (i.e., the C—C bond may be considered non-cleavable even though a small or minute amount of cleavage may occur, and vice versa). Thus, the amount or percentage of cleavage may be partial with the alternatively cleaved or non-cleaved product being possibly undetected or minute. […]

[4] = Spontaneous dehalogenation and ether cleavage in buffered aqueous solution exposed to sunlight; format: physicochemical; conditions: about 1 mM in carbonate buffer (pH 8.0), exposed to sunlight for about one hour; clear yellow/orange solution formed
Source text: In contrast to reductive deiodination, spontaneous dehalogenation (e.g., deiodination) of a halogentated phenol ring in the presence of an oxidizing agent(s) and/or free radical(s) with cleavage of a chemical linkage, such as an ether linkage, etc., between the phenol ring and a conjugated compound has not been described. According to the present invention, cleavage of the ether linkage between the aromatic rings of thyroid hormone may form visibly colored quinone and iodine-containing products in buffered aqueous solutions in vitro, and this ether cleavage reaction may be accelerated under basic pH conditions and with exposure to ionizing radiation or light. These conditions favor the increased formation of oxidizing agents and/or free radicals, which are believed to promote the reaction. […] A quinone and an iodotyrosine product are also formed by cleavage of the ether linkage during the reaction. According to embodiments of the present invention, a spontaneous reaction of dehalogenation and cleavage of a chemical bond is proposed for the targeted delivery and release of a drug compound at or to sites of inflammation or disease. This spontaneous reaction is further proposed as a basis for scavenging free radicals and/or oxidative agents (FROS) as well as for the creation of a detectable compound(s) that may be used for diagnostic purposes.

Oc1c(I)cc(Oc2c[nH]c3ccc(I)cc23)cc1I [Example 4, 5-Iodo-Indolyl-3′,5′-Diiodo-4′-hydroxyl-p-Phenol Ether]
radio-opaque tumor regions or foci by X-ray (formation and deposit of indigo-like product in oxidative tumor tissues) [1]: radio-opaque tumor regions or foci | X-ray detection at sites of wound or injury [2]: strong detection was observed

N[C@@H](Cc1ccc(O)c(I)c1)C(=O)O [MIT, 3-iodo-4-hydroxy-L-phenylalanine]
cleavage of C—C bond with the dehalogenation reaction [3]: generally not to be cleaved

N[C@@H](Cc1cc(I)c(Oc2cc(I)c(O)c(I)c2)c(I)c1)C(=O)O [thyroxine]
cleavage of ether linkage with release of iodide [4]: the ether linkage is broken spontaneously
